Converted amounts (≈) assume the structure as drawn. Read-outs that look alike come from different tables or passages of the source.
Experiments:
[1] = tested on: C. difficile ATCC BAA 1870; assay: MIC/MBC broth microdilution, C. difficile ATCC BAA 1870; format: cell-based, Clostridioides difficile; conditions: for MIC: broth microdilution, anaerobic 48 hours 37°C, visual, read-out: MIC; for MBC: plated on BHIS agar, read-out: MBC
Protocol: (§1) The susceptibility of C. difficile isolates to the CPP-PNA conjugates or to the CPP alone was determined in vitro as described before with slight modifications ([43] [–] [45]). Briefly, the CPP-PNA conjugates, the CPP alone, and the antibiotics vancomycin and fidaxomicin were added in triplicate to the first row of ultra-low adhesion 96-well plates (Corning Inc., Corning, NY). A suspension of C. difficile equivalent to 0.5 McFarland solution was added to Mueller-Hilton II broth, which was then added to the ultra-low adhesion plate and then serially diluted. The plates were incubated anaerobically for 48 hours at 37°C. The minimum inhibitory concentration was defined as the lowest concentration of the CPP-PNA conjugate that could inhibit bacterial growth when observed visually.
(§2) The MIC and MBC experiments were repeated twice.

[2] = tested on: C. difficile ATCC 43255; assay: MIC/MBC broth microdilution, C. difficile ATCC 43255; format: cell-based, Clostridioides difficile; conditions: for MIC: broth microdilution, anaerobic 48 hours 37°C, visual, read-out: MIC; for MBC: plated on BHIS agar, read-out: MBC
Protocol: as §1, §2

[3] = tested on: C. difficile 1082; assay: MIC/MBC broth microdilution, C. difficile 1082; format: cell-based, Clostridioides difficile; conditions: for MIC: broth microdilution, anaerobic 48 hours 37°C, visual, read-out: MIC; for MBC: plated on BHIS agar, read-out: MBC
Protocol: as §1, §2

[4] = tested on: C. difficile 630; assay: Killing kinetics (time-kill assay); format: cell-based, Clostridioides difficile; conditions: 1× MIC, inoculum ~5 × 10^5 CFU/mL, triplicate
Protocol: The killing kinetics of the PNA construct was determined as described previously ([45] [–] [47]). Briefly, an overnight culture of C. difficile 630 was diluted 1:50 into fresh Mueller Hilton II broth (~10^5 CFU/mL) and added in triplicate to low adhesion microcentrifuge tubes containing either sterile water, the rpoA-TAT construct (1× MIC), or the positive controls vancomycin or fidaxomicin (1× MIC). The number of viable bacteria in each treatment group was determined by taking aliquots at 0, 4, 8, 12, 16, and 24 hours; these aliquots were then serially diluted and plated on BHIS agar plates. The plates were incubated anaerobically, and the number of colony-forming units for each treatment group was recorded the following day. The experiment was repeated twice.

[5] = tested on: C. difficile 630; assay: Effect of high bacterial inoculum on activity; format: cell-based, Clostridioides difficile; conditions: 8 hours; for Log reduction: vs no treatment
Protocol: The in vitro efficacy of the PNA constructs against a high inoculum size of C. difficile 630 was determined. Briefly, the PNA constructs and control antibiotics, at a concentration of 1× MIC, were added in triplicate to low adhesion microcentrifuge tubes (Corning Inc., Corning, NY). A high inoculum of C. difficile suspension equivalent to ~5 × 10^6 and ~5 × 10^7 cells was added to the tubes, which were incubated anaerobically at 37°C. The number of viable bacteria in each treatment group was determined by serial dilution and plating on BHIS agar plates at 8 hours and 24 hours post-incubation, respectively. The effect of a high inoculum on the activity of the PNA construct was repeated twice.

[6] = tested on: C. difficile ATCC 630; assay: Effect of pH on MIC/MBC, C. difficile ATCC 630; format: cell-based, Clostridioides difficile; conditions: for MBC: read-out: MBC; for MIC: read-out: MIC
Protocol: as §1, §2
(§3) The susceptibility of C. difficile (ATCC 630 and ATCC BAA 1870) to the rpoA-TAT conjugate was evaluated over a pH range of 6 to 9 using the broth microdilution method ([43], [46] [–] [48]). The desired pH for susceptibility testing was attained by the addition of either 0.1 N HCL or 1 N NaOH to the media. The experiment was repeated twice.

[7] = tested on: C. difficile ATCC BAA 1870; assay: Effect of pH on MIC/MBC, C. difficile ATCC BAA 1870; format: cell-based, Clostridioides difficile; conditions: for MBC: read-out: MBC; for MIC: read-out: MIC
Protocol: as §1, §2, §3

[8] = tested on: toxin A and toxin B production by C. difficile 630; assay: Toxin production inhibition (ELISA); format: cell-based, Clostridioides difficile; conditions: 8 hours, ELISA of supernatant, triplicate
Protocol: After the incubation period, the bacterial count in each treatment group was determined by serial dilution and plating. Toxin content in the supernatant of each treatment group was determined using an enzyme-linked immunosorbent assay (ELISA, tgcBIOMICS) kit, as per the manufacturer’s protocol.

[9] = tested on: spore formation by C. difficile ATCC 630; assay: Spore formation inhibition; format: cell-based, Clostridioides difficile; conditions: 0.5× MIC, 12 hours, compared to negative control (no treatment); for log reduction in the spore count: triplicate
Protocol: After the incubation period, the total bacterial count for each treatment group was determined by serial dilution and plating on BHIS agar plates supplemented with 0.1% taurocholic acid. To determine the presence of spores, the remaining bacterial culture from each treatment group was heated at 65°C for 30 minutes to ensure all vegetative cells were killed. The bacterial culture from each treatment group was then serially diluted and plated on BHIS agar plates supplemented with 0.1% taurocholic acid. The plates were incubated overnight, and the CFU counts for each treatment group were determined the following day.

[10] = tested on: Lactobacillus brevis ATCC 14869; assay: MIC gut microflora, Lactobacillus brevis; format: cell-based; conditions: broth microdilution, MRS broth, 48 hours, read-out: MIC
Protocol: (§4) The susceptibility of gut microflora strains to the rpoA-TAT conjugate was determined using the broth microdilution assay, as described above. Briefly, bacterial suspensions of Bifidobacterium sp. and Bacteroides sp., in supplemented BHIS broth, and Lactobacilli strains, in MRS broth, were added to ultra-low adhesion 96-well plates and serially diluted. The MIC was recorded after 48 hours.

[11] = tested on: Lactobacillus gasseri ATCC 19992; assay: MIC gut microflora, Lactobacillus gasseri; format: cell-based; conditions: broth microdilution, MRS broth, 48 hours, read-out: MIC
Protocol: as §4

[12] = tested on: Lactobacillus rhamnosus ATCC 53103; assay: MIC gut microflora, Lactobacillus rhamnosus; format: cell-based; conditions: broth microdilution, MRS broth, 48 hours, read-out: MIC
Protocol: as §4

[13] = tested on: Bifidobacterium longum subsp. longum HM 846; assay: MIC gut microflora, Bifidobacterium longum; format: cell-based
Protocol: as §4

[14] = Clostridioides difficile, BAA1870
[15] = Clostridioides difficile, ATCC43255
[16] = Clostridioides difficile, ATCC630, pH 6
[17] = Clostridioides difficile, ATCC630, pH 7
[18] = Clostridioides difficile, ATCC630, pH 8
[19] = Clostridioides difficile, BAA1870, pH 6
[20] = Clostridioides difficile, BAA1870, pH 7
[21] = Clostridioides difficile, BAA1870, pH 8
[22] = broth microdilution, supplemented BHIS broth, 48 hours

## CCc1c(Cl)c(O)c(Cl)c(O)c1C(=O)O[C@H]1[C@H](O)[C@H](OC)[C@H](OC/C2=C\C=C\C[C@H](O)/C(C)=C/[C@H](CC)[C@@H](O[C@@H]3OC(C)(C)[C@@H](OC(=O)C(C)C)[C@H](O)[C@@H]3O)/C(C)=C/C(C)=C/C[C@@H]([C@@H](C)O)OC2=O)O[C@@H]1C [Fidaxomicin, fidaxomicin]
[1]; [14]
  MIC: 1 µM (≈ 1.06 µg/mL)
  MBC: 1 µM (≈ 1.06 µg/mL)
[2]; [15]
  MIC: 0.5 µM (≈ 0.529 µg/mL)
  MBC: 0.5 µM (≈ 0.529 µg/mL)
[3]; Clostridioides difficile, 1082
  MIC: 2 µM (≈ 2.12 µg/mL)
  MBC: 2 µM (≈ 2.12 µg/mL)
[4]
  time to eradication of bacteria (below the limit of detection, 250 CFU/mL): ≤ 12 h
[5]; inoculum 5 × 10^6, 1× MIC
  Log CFU: 0
  Log reduction: 6.37
[5]; inoculum 5 × 10^7, 1× MIC
  Log CFU: 0
  Log reduction: 7.77
[6]; [16]
  MBC: 1 µM (≈ 1.06 µg/mL)
  MIC: 0.5 µM (≈ 0.529 µg/mL)
[6]; [17]
  MBC: 1 µM (≈ 1.06 µg/mL)
  MIC: 0.5 µM (≈ 0.529 µg/mL)
[6]; [18]
  MBC: 4 µM (≈ 4.23 µg/mL)
  MIC: 1 µM (≈ 1.06 µg/mL)
[7]; [19]
  MBC: 2 µM (≈ 2.12 µg/mL)
  MIC: 1 µM (≈ 1.06 µg/mL)
[7]; [20]
  MBC: 2 µM (≈ 2.12 µg/mL)
  MIC: 1 µM (≈ 1.06 µg/mL)
[7]; [21]
  MBC: 4 µM (≈ 4.23 µg/mL)
  MIC: 1 µM (≈ 1.06 µg/mL)
[8]; 0.125× MIC
  reduction of C. difficile toxin production: 45.7%
[8]; 0.25× MIC
  reduction of C. difficile toxin production: 50.6%
[8]; 0.5× MIC
  reduction of C. difficile toxin production: 54%
[9]
  reduction in the spore count: 99.9%
  log reduction in the spore count: 3.44 log
[10]; Levilactobacillus brevis, ATCC14869
  MIC: > 2 µM
[11]; Lactobacillus gasseri, ATCC19992
  MIC: > 2 µM
[12]; Lacticaseibacillus rhamnosus, ATCC53103
  MIC: > 2 µM
[13]; Bifidobacterium longum, 48 h
  MIC: 0.125 µM (≈ 0.132 µg/mL)
[13]; [22]
  MIC: 0.125 µM (≈ 0.132 µg/mL)

## GRKKKRRQRRRYK-O-CATGGACAAAAC-NH2 [rpoA-TAT, PNA oligomer antisense to C. difficile rpoA covalently conjugated to the TAT cell penetrating peptide]
[1]
  MIC: 8 µM
  MBC: 8 µM
[2]
  MIC: 8 µM
  MBC: 8 µM
[3]
  MIC: 4 µM
  MBC: 4 µM
[4]
  time to eradication of bacteria (below the limit of detection, 250 CFU/mL): ≤ 8 h
[5]; inoculum 5 × 10^6, 1× MIC
  Log CFU: 0
  Log reduction: 6.37
[5]; inoculum 5 × 10^7, 1× MIC
  Log CFU: 0
  Log reduction: 7.77
[6]; pH 6
  MBC: 8 µM
  MIC: 8 µM
[6]; pH 7
  MBC: 8 µM
  MIC: 8 µM
[6]; pH 8
  MBC: 8 µM
  MIC: 8 µM
[7]; pH 6
  MBC: 8 µM
  MIC: 8 µM
[7]; pH 7
  MBC: 8 µM
  MIC: 8 µM
[8]; 0.125× MIC
  reduction of C. difficile toxin production: 34.9%
[8]; 0.25× MIC
  reduction of C. difficile toxin production: 54.3%
[8]; 0.5× MIC
  reduction of C. difficile toxin production: 55.2%
[9]
  reduction in the spore count: 99.9%
  log reduction in the spore count: 3.44 log
[10]
  MIC: >32 µM
[11]
  MIC: >32 µM
[12]
  MIC: >32 µM
[13]; [22]
  MIC: >32 µM

Source: PMC10581251, “Antisense inhibition of RNA polymerase α subunit of Clostridioides difficile” (Microbiology Spectrum, 2023)
